{
  "source": "patent US12358918B2",
  "about": "“Aryl hydrocarbon receptor (AHR) activator compounds as cancer therapeutics” (THE BROAD INSTITUTE, INC., priority 2018, dated 2025)",
  "key": {"[1]": {"tested_on": "MDA-MB-468 and ZR51 breast cancer and JHH7 liver cancer cell lines"}, "[2]": {"tested_on": "ZR-75-1 and MDA-MB-468 cells harboring an AGR2 knockout", "settings": "CRISPR-Cas9 AGR2 knockout; FIGS. 10A-10D"}, "[3]": {"biological_target": "T1, recombinant human Adenosine A2B (FAST-003C) receptor (Homo sapiens, UniProt P29275)", "T1 sequence (P29275 1-332)": "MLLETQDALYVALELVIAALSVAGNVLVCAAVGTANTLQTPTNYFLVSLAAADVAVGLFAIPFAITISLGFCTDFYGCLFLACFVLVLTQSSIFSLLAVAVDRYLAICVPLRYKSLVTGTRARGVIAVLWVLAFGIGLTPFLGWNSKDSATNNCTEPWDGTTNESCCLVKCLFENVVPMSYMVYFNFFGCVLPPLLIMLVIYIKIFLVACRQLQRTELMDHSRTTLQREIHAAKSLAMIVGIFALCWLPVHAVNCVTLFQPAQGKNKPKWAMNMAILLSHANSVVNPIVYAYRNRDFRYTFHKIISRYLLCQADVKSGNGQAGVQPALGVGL", "assay": "cAMP HTRF assay, Adenosine A2B receptor, antagonist mode", "set-up": "inhibition: dose or concentration left out as unconfirmed"}, "[4]": {"biological_target": "recombinant human Adenosine A2A (FAST-002C) receptor (Homo sapiens, UniProt P29274)", "sequence (P29274 whole entry)": "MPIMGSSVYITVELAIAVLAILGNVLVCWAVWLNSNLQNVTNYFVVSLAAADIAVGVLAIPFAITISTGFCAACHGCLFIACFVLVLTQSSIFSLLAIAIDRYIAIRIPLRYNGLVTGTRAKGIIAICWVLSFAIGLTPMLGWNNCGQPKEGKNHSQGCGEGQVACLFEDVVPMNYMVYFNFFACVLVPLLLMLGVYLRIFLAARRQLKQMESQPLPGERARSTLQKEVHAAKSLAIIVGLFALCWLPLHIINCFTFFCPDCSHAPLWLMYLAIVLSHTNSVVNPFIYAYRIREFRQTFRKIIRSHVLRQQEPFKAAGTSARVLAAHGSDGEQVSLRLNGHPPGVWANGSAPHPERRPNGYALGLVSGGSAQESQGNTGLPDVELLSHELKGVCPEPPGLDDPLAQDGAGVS", "assay": "cAMP HTRF assay, Adenosine A2A receptor, antagonist mode", "format": "cell-based"}, "[5]": {"tested_on": "MDA-MB-468 and ZR-75-1 cell lines", "settings": "AHR sg3 / AHR sg4 knockout vs GFP sg1 or parental Cas9; FIGS. 13A and 13B"}, "[6]": {"biological_target": "T2, recombinant human Adenosine A3 (FAST-004C) receptor (Homo sapiens, UniProt P0DMS8)", "T2 sequence (P0DMS8 1-318)": "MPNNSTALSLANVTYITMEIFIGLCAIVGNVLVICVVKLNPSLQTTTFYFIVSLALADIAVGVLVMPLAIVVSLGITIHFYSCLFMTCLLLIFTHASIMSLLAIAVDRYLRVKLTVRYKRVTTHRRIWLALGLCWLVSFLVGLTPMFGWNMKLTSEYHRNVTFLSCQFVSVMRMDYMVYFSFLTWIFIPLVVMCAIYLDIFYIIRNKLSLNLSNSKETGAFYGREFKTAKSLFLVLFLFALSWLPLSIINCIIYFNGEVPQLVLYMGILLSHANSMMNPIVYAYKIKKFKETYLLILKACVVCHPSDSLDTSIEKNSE", "assay": "cAMP HTRF assay, Adenosine A3 receptor, antagonist mode", "format": "cell-based"}, "578 cancer cell lines": {"tested_on": "578 cancer cell lines", "assay": "PRISM multiplexed cellular viability screening", "format": "cell-based", "settings": "relation to FOXA1 / FOXA1 target expression across cell lines", "experimental": "The instant discovery was made using large-scale multiplex profiling of existing drugs against 578 cancer cell lines, employing a PRISM multiplexed cellular viability assay.\nParental cell lines were obtained from the Cancer Cell Line Encyclopedia (CCLE) project (1). PRISM cell line barcoding, pooling, and screening was performed as previously described with several improvements to the original method (2). First, the lentiviral vector was modified to encode the unique barcode identifier at the end of the puromycin resistance gene. This enables barcodes to be detected using a variant of the mRNA capture and Luminex detection method developed for the L1000 gene expression assay (3). Second, a set of ten inert barcodes were spiked-in to each well of each plate after cell lysis to control for variation in PCR amplification as detailed below.\nLuminex technology produced .Ixb files containing data for each Luminex bead observed during detection. These .Ixb files were processed to compute Median Fluorescence Intensity (MFI) values, calculated as the median of the values obtained for all beads corresponding to a single PRISM barcode.\nMFI values were log-transformed (log MFI) and used to perform basic quality control. To detect probable screening artifacts, log MFI values were centered to the median log MFI for each cell line on each plate in order to put the measurements from each cell line on the same scale. For each well on each plate, the median of these centered values was then standardized according to the global median and global MAD across all plate wells in the same position. Data from wells with a standardized score of greater than 5 or less than −5 were excluded from all further processing steps.\nFor each cell line on each plate, the distribution of MFI values observed for the DMSO-treated negative controls was compared to that of the positive controls using a robust form of the Strictly Standardized Mean Difference (SSMD*)′. Specifically, SSMD* was calculated as: […]\nData corresponding to SSMD values less than 2 were removed before calculating cell viability.\nThe data in the instant disclosure were produced according to two different screening protocols. In the PR500 protocol, ten inert barcodes were spiked-in to each well of each plate after cell lysis. For data produced using the PR500 protocol, normalized MFI (nMFI) values were computed by taking the ratio of each MFI value against the median of the inert barcodes within each well. […]\nCell viability was calculated as the ratio of nMFI to the median of the nMFI from the DMSO-treated negative controls for each cell line on each plate. […] The final viability values were calculated as the median of the batch-corrected cell viabilities from biological replicates for each cell line, compound and dose. […]"}, "[7]": {"tested_on": "Twelve different breast cancer cell lines", "assay": "adenosine receptor antagonists and agonists dosed on twelve breast cancer cell lines", "format": "cell-based", "settings": "32 adenosine receptor antagonists/agonists compared; FIG. 6B"}, "[8]": {"tested_on": "MDA-MB-231 breast cancer cell lines", "assay": "cytotoxicity, control cells vs cells overexpressing CYP1A1", "format": "cell-based", "text": "The dependence of each compound's cytotoxic effects upon CYP1A1 was also examined, via screening of MDA-MB-231 breast cancer cell lines for cytotoxic response. The CYP1A1-dependence of the cytotoxic response of to each tested compound was specifically determined by comparing the cytotoxicity of each compound administered to control cells with that of the compound administered to corresponding cells that overexpressed CYP1A1. […]"}, "[9]": {"settings": "HEK293, read-out: % Inhibition Average at maximal concentration"}, "[10]": {"settings": "antagonist mode dose-response fit"}},
  "note": "“Also recorded” adds a separate entry of the source.",
  "data": [
    {"smiles": "Nc1nc2ccc(Cl)cc2c2nc(-c3ccco3)nn12", "note": "[CGS-15943, reference compound]", "values": [
      {"measurement": "AHR-dependence of the cytotoxic response", "setting": "[1]", "result": "dependence upon AHR"},
      {"measurement": "rescue of cytotoxicity by AGR2 knockout", "setting": "[2]", "result": "not rescued by AGR2 knockout"},
      {"measurement": "inhibition", "setting": "[3]; [9]", "result": 120, "unit": "%"},
      {"measurement": "Hill Coefficient", "setting": "[3]; [10]", "result": 1.75},
      {"measurement": "inhibition at 10 µM", "setting": "[4]; [9]", "result": 125, "unit": "%"},
      {"measurement": "Hill Coefficient", "setting": "[4]; [10]", "result": 1.25},
      {"measurement": "dependence of cytotoxic activity on AHR", "setting": "[5]", "result": "required intact AHR expression"},
      {"measurement": "inhibition at 10 µM", "setting": "[6]; CHO-K1, read-out: % Inhibition Average at maximal concentration", "result": 68.9, "unit": "%"},
      {"measurement": "Hill Coefficient", "setting": "[6]; [10]", "result": 1.66},
      {"measurement": "IC50", "setting": "[6]; antagonist mode, CHO-K1, reference agonist IB-MECA", "result": 2090, "unit": "nM"},
      {"measurement": "cell killing profile in PRISM", "setting": "578 cancer cell lines", "result": "cell killing profile specific for such FOXA1-dependent cancer cell lines; also recorded: selective killing of FOXA1-high cancer cell lines"},
      {"measurement": "cytotoxicity to breast cancer cell lines", "setting": "[7]", "result": "cytotoxic"},
      {"measurement": "CYP1A1-dependence of the cytotoxic response", "setting": "[8]", "result": "CYP1A1-dependent cytotoxic"}
    ]}
  ]
}
